Earlier results in EP1133548B2, “DETERGENT COMPOSITIONS IN TABLET FORM” (UNILEVER PLC, priority 1998, dated 2000).

Settings: 20°C; grams of solid to form a saturated solution in 100 grams of water

Q: Which “Water Solubility (g/100g)” value does the source give for `NC(N)=O` [Urea] here?
A: The value was greater than 100 g/100g.

Q: Which “Water Solubility (g/100g)” value does the source give for `O=BO[O-].[Na+]` [Sodium perborate anhydrous] here?
A: The value was 3.7 g/100g.

Q: Which “Water Solubility (g/100g)” value does the source give for `O=P(O)(O)OP(=O)(O)OP(=O)(O)O` [Sodium tripolyphosphate anhydrous] here?
A: The value was 15 g/100g.
